Values quoted from earlier work as cited in patent US20080221048A1, “Lyophilized azithromycin formulation” (APP Pharmaceuticals, LLC., priority 2004, published 2008).
Read-outs that look alike come from different tables or passages of the source.

Settings: for time diluted azithromycin for injection is stable: diluted to 1.0-2.0 mg/mL

CC[C@H]1OC(=O)[C@H](C)[C@@H](O[C@H]2C[C@@](C)(OC)[C@@H](O)[C@H](C)O2)[C@H](C)[C@@H](OC2O[C@H](C)C[C@H](N(C)C)[C@H]2O)C(C)(O)C[C@@H](C)CN(C)[C@H](C)[C@@H](O)[C@]1(C)O (stereo in doubt) [azithromycin, (2R,3S,4R,5R,8R,10R,11R,12S,13S,14R)-13-[(2,6-dideoxy-3-C-methyl-3-O-methyl-α-L-ribo-hexo-pyranosyl)oxy]-2-ethyl-3,4,10-trihydroxy-3,5,6,8,10,12,14-heptamethyl-11-[[3,4,6-trideoxy-3-(dimethylamino)-β-D-xylo-hexopyranosyl]oxy]-1-oxa-6-azacyclopentadecan-15-one]
time diluted azithromycin for injection is stable (at or below room temperature (30° C. or 86° F.)): 24 h | time diluted azithromycin for injection is stable (stored under refrigeration (5° C. or 41° F.)): 170 h | time reconstituted azithromycin solution is stable (reconstituted solution (about 100 mg/mL), stored below 30° C. or 86° F.): 24 h
